Laboratory results as given in patent US20220110993A1, “COMPOSITIONS FOR TREATMENT OF JAW PAIN, TEMPOROMANDIBULAR JOINT AND MUSCLE DISORDER AND BRUXISM” (LAB-O Corp., priority 2020, published 2022).

Experiments:
[1] = cited from earlier work
normal skin = assay: Human Repeat Insult Patch Test (RIPT); type: in vivo; conditions: RIPT positive control
Description: The objective of the study was to determine irritation and sensitization potential of the composition as a test material after repeated application to skin. Contact sensitization was measured by treatment emergent adverse events (TEAE5), reaction grade and investigator assessment of irritation and sensitization. An informed consent was obtained from each volunteer prior to initiating the study. The consent form described reasons for the study, possible adverse effects, associated risks and potential benefits of the treatment and their limits of liability. […] The present composition was tested under occlusive conditions and placed on an 8-millimeter aluminum Finn Chamber (Epitest Ltd. Oy, Tuusula, Finland) supported on Scanpor Tape (Norgesplaster A/S, Kristiansand, Norway). Alternatively, an 8-mm filter paper coated aluminum Finn Chamber AQUA can be supported on a thin flexible transparent polyurethane rectangular film coated on one side with a medical grade acrylic adhesive, consistent with adhesive used in state-of-the-art hypoallergenic surgical tapes or a 7 mm IQ-ULTRA closed cell system. Such a closed cell system is made of additive-free polyethylene plastic foam with a filter paper incorporated (supplied in units of 10 chambers on a hypoallergenic non-woven adhesive tape having a width of 52 mm and a length of 118 mm) or other equivalents. […] Test materials to be tested in an open patch were applied and rubbed directly onto the back of the subject. Approximately 0.02-0.05 mL (in case of liquids) and/or 0.02-0.05 gm (in case of solids) of the test material was used for the study. Liquid test material was dispensed on a 7.5 mm paper disk, which fit in the Finn Chamber. The following procedure was applied: • 1. Subjects were requested to bathe or wash as usual before arrival at the facility. • 2. […] Patches remained in place for 48 hours after the first application. • 4. Subjects were instructed not to remove the patches prior to their 48 hour scheduled visit. • 5. Thereafter, subjects were instructed to remove patches 24 hours after application for the remainder of the study. • 6. […] Prior to each reapplication, the test sites evaluated by trained laboratory personnel. • 8. Following a 10-14 day rest period a retest/challenge dose was applied once to a previously unexposed test site. Test sites were evaluated by trained laboratory personnel 48 and 96 hours after application. In the event of an adverse reaction, the area of erythema and edema were to be measured. Edema is estimated by the evaluation of the skin with respect to the contour of the unaffected normal skin. Subjects were instructed to report any delayed reactions that might occur after the final reading. […] Site discontinued • Dc: Subject discontinued voluntarily • DcI: Subject discontinued per Investigator

Structure (SMILES)	solubility in oil and alcohol [1]	subjects with a Grade 1 reaction (normal skin; Grade 1: erythema)	subjects with a Grade 2 reaction (normal skin; Grade 2: erythema and induration)	subjects with a Grade 3 reaction (normal skin; Grade 3: erythema, induration and vesicles)	subjects with a Grade 4 reaction (normal skin; Grade 4: erythema, induration and bullae)	subjects with a delayed Grade 2 reaction (normal skin; delayed reaction)
CC(C)C1CC[C@@H](C)C[C@H]1O (single isomer, unassigned; (-)) [Menthol crystals, (−)-menthol]	soluble in both oil and alcohol					
CCCCCCCCCCCCOS(=O)(=O)[O-].[Na+] [2.0% Sodium Lauryl Sulfate Solution, Sodium Lauryl Sulfate]		12 subjects	4 subjects	1 subjects	3 subjects	1 subjects
